Test results as given in the supplement of paper PMC11208160.

Assay: recombinant UMI read abundance after kanamycin selection (control-corrected) (log10(CPM+1)); higher = more efficient recombination; extreme values may be limits of the assay; sequences stand for … in AGTGCAGAGAAAATCGGCCAGTTTTCTCTGCCTGCAGTCCGCATGCCGTGGGACCCCTTGGGTTCTAACCTGTTGCCTAGATTTATGCAGCGGACTGCCTTTCTCCCAAAGTGATAAACCGG…AGGTTGGTTTCACT; site = the 11-nt donor
In short: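 Sequencing read counts were converted to CPM, averaged over two replicates and scaled by control-derived factors. Results are given as log10(CPM+1). The reads covered the donor–target junction of recombinant UMIs from a pooled Escherichia coli screen of donor and donor-binding-loop pairs for the IS621 bridge recombinase.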
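Note: IS621 bridge recombinase in Escherichia coli cells against a fixed T5 target plasmid.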

Sequence | recombinant UMI read abundance (log10)
AGTAAGACATGGACCGGTTTTCCCGGTAATCCGTATTTGAG (site AGTAAGACTCT) | 1.72
AGTAAGACATGGACCGGTTTTCCCGGTAATCCGTATTTGCA (site AGAAAGACTTG) | 1.66
AGTAAGACATGGACCGGTTTTCCCGGTAATCCGTATTTGCA (site AGCAAGACTTG) | 2.39
AGTAAGACATGGACCGGTTTTCCCGGTAATCCGTATTTGCA (site AGGAAGACTTG) | 1.31
AGTAAGACATGGACCGGTTTTCCCGGTAATCCGTATTTGCA (site AGTAAGACTTG) | 2.57
AGTAAGACATGGACCGGTTTTCCCGGTAATCCGTATTTGCC (site AGGAAGACTTG) | 0.00684
AGTAAGACATGGACCGGTTTTCCCGGTAATCCGTATTTGCC (site AGTAAGACTGG) | 2.13
AGTAATCCATGGACCGGTTTTCCCGGTAATCCGTATTTGGT (site AGTAATCCTAC) | 0.00506
AGTACAGCATGGACCGGTTTTCCCGGTAATCCGTATTTGCC (site AGTACAGCTGG) | 2.27
AGTACTACATGGACCGGTTTTCCCGGTAATCCGTATTTGAC (site AGAACTACTGT) | 0.731
AGTACTACATGGACCGGTTTTCCCGGTAATCCGTATTTGAC (site AGCACTACTGT) | 0
AGTACTACATGGACCGGTTTTCCCGGTAATCCGTATTTGAC (site AGGACTACTGT) | 1.71
AGTACTACATGGACCGGTTTTCCCGGTAATCCGTATTTGAC (site AGTACTACTGT) | 1.28
AGTACTGCATGGACCGGTTTTCCCGGTAATCCGTATTTGGT (site AGTACTGCTAC) | 0.745
AGTAGAACATGGACCGGTTTTCCCGGTAATCCGTATTTGAG (site AATAGAACTCT) | 0.806
AGTAGAACATGGACCGGTTTTCCCGGTAATCCGTATTTGAG (site ACTAGAACTCT) | 0.901
AGTAGAACATGGACCGGTTTTCCCGGTAATCCGTATTTGAG (site AGTAGAACTCT) | 1.24
AGTAGAACATGGACCGGTTTTCCCGGTAATCCGTATTTGAG (site ATTAGAACTCT) | 0.418
AGTAGCTCATGGACCGGTTTTCCCGGTAATCCGTATTTGGC (site AGTAGCTCTGC) | 2.79
AGTAGTACATGGACCGGTTTTCCCGGTAATCCGTATTTGGT (site AGTAGTACTAC) | 0.706
AGTAGTGCATGGACCGGTTTTCCCGGTAATCCGTATTTGGT (site AATAGTGCTAC) | 0.246
AGTAGTGCATGGACCGGTTTTCCCGGTAATCCGTATTTGGT (site ACTAGTGCTAC) | 0.699
AGTAGTGCATGGACCGGTTTTCCCGGTAATCCGTATTTGGT (site AGTAGTGCTAC) | 1.3
AGTAGTGCATGGACCGGTTTTCCCGGTAATCCGTATTTGGT (site ATTAGTGCTAC) | 0.00696
AGTATTTCATGGACCGGTTTTCCCGGTAATCCGTATTTGAG (site AGTATTTCTCT) | 1.39

Sequence | recombinant UMI read abundance (log10)
AGTCAGACATGGACCGGTTTTCCCGGTAATCCGTATTTGGC (site AGTCAGACTGC) | 2.34
AGTCCGACATGGACCGGTTTTCCCGGTAATCCGTATTTGTC (site AGTCCGACTGA) | 0.624
AGTCGTACATGGACCGGTTTTCCCGGTAATCCGTATTTGGA (site AGTCGTACTTC) | 0.529
AGTCTGGCATGGACCGGTTTTCCCGGTAATCCGTATTTGAA (site AGTCTGGCTTT) | 1.19
AGTCTTACATGGACCGGTTTTCCCGGTAATCCGTATTTGGT (site AGTCTTACTAC) | 1.14
AGTGCCGCATGGACCGGTTTTCCCGGTAATCCGTATTTGGG (site AGTGCCGCTCC) | 0.025
AGTGTAACATGGACCGGTTTTCCCGGTAATCCGTATTTGCT (site AATGTAACTAG) | 1.36
AGTGTAACATGGACCGGTTTTCCCGGTAATCCGTATTTGCT (site ACTGTAACTAG) | 1.47
AGTGTAACATGGACCGGTTTTCCCGGTAATCCGTATTTGCT (site AGTGTAACTAG) | 1.94
AGTGTAACATGGACCGGTTTTCCCGGTAATCCGTATTTGCT (site ATTGTAACTAG) | 1.12
AGTGTCTCATGGACCGGTTTTCCCGGTAATCCGTATTTGAG (site AGTGTCTCTCT) | 1.2
AGTTAGGCATGGACCGGTTTTCCCGGTAATCCGTATTTGGA (site AGTTAGGCTTC) | 0.957
AGTTCAGCATGGACCGGTTTTCCCGGTAATCCGTATTTGAT (site AGTTCAGCTAT) | 1.05
AGTTCCTCATGGACCGGTTTTCCCGGTAATCCGTATTTGCA (site AGTTCCTCTTG) | 2.47
AGTTCGACATGGACCGGTTTTCCCGGTAATCCGTATTTGAC (site AGTTCGACTGT) | 0.845
AGTTGATCATGGACCGGTTTTCCCGGTAATCCGTATTTGAC (site AGTTGATCTGT) | 1.28
AGTTGCTCATGGACCGGTTTTCCCGGTAATCCGTATTTGAA (site AGTTGCTCTTT) | 0.47
AGTTGGCCATGGACCGGTTTTCCCGGTAATCCGTATTTGGG (site AGTTGGCCTCC) | 0.0248
AGTTGTTCATGGACCGGTTTTCCCGGTAATCCGTATTTGTT (site AGTTGTTCTAA) | 0.233
AGTTTCCCATGGACCGGTTTTCCCGGTAATCCGTATTTGTG (site AGATTCCCTCA) | 0.0216
AGTTTCCCATGGACCGGTTTTCCCGGTAATCCGTATTTGTG (site AGCTTCCCTCA) | 0.0227
AGTTTCCCATGGACCGGTTTTCCCGGTAATCCGTATTTGTG (site AGGTTCCCTCA) | 0.0056
AGTTTCCCATGGACCGGTTTTCCCGGTAATCCGTATTTGTG (site AGTTTCCCTCA) | 0.0252
AGTTTGCCATGGACCGGTTTTCCCGGTAATCCGTATTTGAA (site AGTTTGCCTTT) | 0.00758
ATAAACCCATGGACCGGTTTTCCCGGTAATCCGTATTTGAT (site ATAAACCCTAT) | 1.19

Sequence | recombinant UMI read abundance (log10)
ATAAACTCATGGACCGGTTTTCCCGGTAATCCGTATTTGCG (site ATAAACTCTCG) | 3.23
ATAAAGGCATGGACCGGTTTTCCCGGTAATCCGTATTTGCT (site AAAAAGGCTAG) | 0.238
ATAAAGGCATGGACCGGTTTTCCCGGTAATCCGTATTTGCT (site ACAAAGGCTAG) | 1.63
ATAAAGGCATGGACCGGTTTTCCCGGTAATCCGTATTTGCT (site AGAAAGGCTAG) | 0.349
ATAAAGGCATGGACCGGTTTTCCCGGTAATCCGTATTTGCT (site ATAAAGGCTAG) | 2.75
ATAACGCCATGGACCGGTTTTCCCGGTAATCCGTATTTGAG (site ATAACGCCTCT) | 0.00694
ATAACGCCATGGACCGGTTTTCCCGGTAATCCGTATTTGTC (site ATAACGCCTGA) | 1.58
ATAAGGCCATGGACCGGTTTTCCCGGTAATCCGTATTTGAA (site ATAAGGCCTAT) | 0.00331
ATAAGGCCATGGACCGGTTTTCCCGGTAATCCGTATTTGAA (site ATAAGGCCTCT) | 0.0201
ATAAGGCCATGGACCGGTTTTCCCGGTAATCCGTATTTGAA (site ATAAGGCCTGT) | 0
ATAAGGCCATGGACCGGTTTTCCCGGTAATCCGTATTTGAA (site ATAAGGCCTTT) | 0.404
ATAAGGCCATGGACCGGTTTTCCCGGTAATCCGTATTTGAG (site ATAAGGCCTAT) | 0.00358
ATAAGGCCATGGACCGGTTTTCCCGGTAATCCGTATTTGAG (site ATAAGGCCTCT) | 0.325
ATAAGGCCATGGACCGGTTTTCCCGGTAATCCGTATTTGAG (site ATAAGGCCTGT) | 0
ATAAGGCCATGGACCGGTTTTCCCGGTAATCCGTATTTGAG (site ATAAGGCCTTT) | 0.025
ATAAGGGCATGGACCGGTTTTCCCGGTAATCCGTATTTGAC (site ATAAGGACTGT) | 2.61
ATAAGGGCATGGACCGGTTTTCCCGGTAATCCGTATTTGAC (site ATAAGGCCTGT) | 0.00415
ATAAGGGCATGGACCGGTTTTCCCGGTAATCCGTATTTGAC (site ATAAGGGCTGT) | 2.79
ATAAGGGCATGGACCGGTTTTCCCGGTAATCCGTATTTGAC (site ATAAGGTCTGT) | 2.53
ATAAGGTCATGGACCGGTTTTCCCGGTAATCCGTATTTGAC (site ATAAGGACTGT) | 1.91
ATAAGGTCATGGACCGGTTTTCCCGGTAATCCGTATTTGAC (site ATAAGGCCTGT) | 1.04
ATAAGGTCATGGACCGGTTTTCCCGGTAATCCGTATTTGAC (site ATAAGGGCTGT) | 0.526
ATAAGGTCATGGACCGGTTTTCCCGGTAATCCGTATTTGAC (site ATAAGGTCTGT) | 3.4
ATACACACATGGACCGGTTTTCCCGGTAATCCGTATTTGGG (site ATACACACTCC) | 0.537
ATACAGCCATGGACCGGTTTTCCCGGTAATCCGTATTTGGT (site ATACAGCCTAC) | 0.00946
